Measurements published in patent US10214491B2, “Activators and therapeutic applications thereof” (THE JOHNS HOPKINS UNIVERSITY, priority 2007, dated 2019).
Entries after “also recorded” stand apart in the source; their conditions may differ.

How the values were obtained:
[1] = test system: normal human primary melanocytes; assay: WST-1 cell viability assay, melanocytes; type: cell-based; details: Melanocyte, three days
Protocol: (§1) The effect of the compounds selected using the screening assay on the viability of several tumor cell lines as well as diploid cell lines and cell strains was studied. Cells were plated in 96-well plates at a density of 10,000 cells/100 μL/well and were incubated overnight. The following day compound dilutions ranging from 0 to 40 μM were applied to the cells in triplicate and the cells were incubated with the compounds for three days. Cell viability was assayed using the WST-1 cell proliferation reagent (Roche Diagnostics, Germany) The WST-1 reagent was diluted 1:10 in cell culture media and 100 μL of the reagent dilution was applied onto cells followed by 1 hour incubation at +37° C. The specific absorbance was measured at 450 nm and a reference absorbance was measured at 690 nm. […] Analysis for Protein Levels

[2] = test system: p53, Mdm2 and p21 levels in A375 melanoma cells; assay: Immunoblotting and immunofluorescence for p53, Mdm2 and p21 levels; type: cell-based; details: A375, 24 hours, 5 μM
Protocol: To study the effect of compounds on endogenous protein levels, A375 melanoma cells were treated with the compounds for 24 hours. Cellular lysates were prepared in lysis buffer containing 0.5% NP-40 with proteinase inhibitors. Protein (20-30 μg) was separated by sodium dodecyl sulphate-polyacrylamide gel electrophoresis (SDS-PAGE) followed by transfer to PVDF membrane (Immobilon™-P, Millipore, Bedford, Mass., USA). Immunoblotting was carried out using DO-1 antibody for p53, 2A10 for Mdm2 and anti-p21 (Becton Dickinson) to detect p21, followed by secondary antibodies conjugated with horseradish peroxidase (p53) or biotin followed by streptavidin-horseradish peroxidase (Mdm2 and p21) after which proteins were detected with enhanced chemiluminescence (ECL, Amersham Life Sciences). Equal protein loading was verified using GAPDH (p9.B.88, Europa Bioproducts Ltd, UK) as a protein loading control.
(§2) Immunofluorescence staining was carried out to determine the correct localisation of p53 and to detect H2AX phosphorylation indicative of genotoxic stress. Cells were treated with the compounds and fixed in paraformaldehyde (3.5 PFA, 25 min RT). The coverslips were permeabilised in 0.5% NP-40 and blocked in 3% bovine serum albumin (BSA). p53 was detected by staining with FL-393 antibody (Santa Cruz, 1:50, 1 h at +37° C.) followed by Alexa-594 conjugated secondary antibody (Molecular Probes, 1:200, 1 h at +37° C.), phospho-H2AX was detected by staining with anti-H2AX (P-Ser-139) antibody (Upstate, 1:200 1 h at +37° C.) followed by Alexa-488 conjugated secondary antibody (Molecular Probes, 1:200, 1 h at +37° C.). Nuclei were stained with Hoechst 33342. Images were captured using the Zeiss Axioplan fluorescence microscope equipped with Zeiss AxioCam HRc CCD-camera and AxioVision 4.5 software using 40×, NA=0,75 objective, Chroma 31000, Chroma41001 and 41004 filters for Hoechst, Alexa488 and Alexa594, respectively.

A375 melanoma cells = assay: Flow cytometry cell cycle and apoptosis analysis; type: cell-based; details: A375, three days at 10 μM or six days at 5 μM
Protocol: Cell cycle analysis and cellular apoptosis was assayed with flow cytometry (LSR, Beckton Dickinson). Cells were treated with the compounds and both floating and adherent cells were harvested and fixed in 70% ethanol at −20° C. followed by staining of DNA with propidium iodide. A total of 10,000 counts were collected and data was analysed using ModFit LT 3.1 software. Cells present in sub-G1 population were regarded as apoptotic.

A375 melanoma (WTp53) = assay: WST-1 cell viability assay, A375; type: cell-based; details: for IC50: A375 melanoma (WTp53), three days, WST-1
Protocol: as §1

WS-1 diploid fibroblast = assay: WST-1 cell viability assay, WS-1; type: cell-based, human; details: three days
Protocol: as §1

RPMI7951 (MUTp53) = assay: WST-1 cell viability assay, RPMI-7951; type: cell-based; details: three days
Protocol: as §1

[3] = test system: Human intestinal endothelial cells; assay: WST-1 cell viability assay, intestinal endothelial cells; type: cell-based; details: three days
Protocol: as §1

[4] = test system: p53DsRed reporter in PG3/9 melanoma cells (A375 clone); assay: p53DsRed reporter activation assay (in vitro p53 activity assay); type: cell-based; details: for EC50: Homo sapiens, A-375, PG3/9 melanoma cells, 24 hours, read-out: effective concentration (EC50), p53DsRed reporter activation; for fraction of p53-reporter activated cells at high concentrations: apparently due to excessive cell death
Protocol: The ability of the compounds to activate p53 was analyzed using a cell-based assay. To establish the assay, a stable cell transfectant expressing a p53-responsive reporter was generated. A375 melanoma cell line (ATCC CRL-1619) was transfected with a vector containing the p53 consensus element 13x repeat (13XRE) (Kern et al., 1991) cloned to a DsRed Express reporter vector (Clontech) to yield the vector “PG13DsRed”, hereafter termed as “p53DsRed”. […] The cell clone PG3/9 was used in the screen.
The assay was carried out in a 96-well format and all plate handlings were done using liquid handling robots (Thermo CRS, Thermo Electron Corporation; Biomek FX, Beckman Coulter and Hamilton STAR, Hamilton Microlab). Cells were plated at 10,000 cells/100 μL/well onto 96-well ViewPlates (Packard) and incubated overnight at +37° C. and 5% CO2. Small molecule compound chemical libraries were purchased and diluted to dimethylsulfoxide (DMSO) at 10 mM concentration. The compounds were pin-transferred to plain media at approximately 3 μM concentration either as single (one compound/one well) or pools of compounds (two compounds/one well). The growth media was removed and replaced with media with the test compounds followed by incubation of the cells for 24 h at +37° C. and 5% CO2. […] Following the incubation, the cells were washed with phosphate buffered saline and fixed with paraformaldehyde (PFA, 4%, 25 min, RT) and cell nuclei were stained with Hoechst 33342 (Molecular Probes, 4 μg/mL, 2 min, RT).
The fluorescence signals of Hoechst 33342 and DsRed reporter expression in the fixed cells were analyzed using ArrayScan 4.5 high-content screening platform (Cellomics) including an inverted microscope (Zeiss 200M) with 10× objective (Zeiss), Omega XF93 filter (Omega), ORCA-AG CCD camera (Hamamatsu). The algorithm used for image acquisition and analysis was Target Activation Bioapplication (Cellomics), which was set to analyse the total number of cells and the percentage of p53 reporter positive cells termed as “responders”. For each well, four images on both fluorescence channels were acquired corresponding to approximately 1700 cells in mock-treated wells. The mean number of responders was calculated for each well, and compounds causing reporter activation for more than two times the mean number of responders in the mock treated cells in each plate were regarded as hits.
In the secondary screen the hits were collected and tested over 100 nM to 10 μM concentration range. The compound treatment time, cell fixations and stainings as well as fluorescence signal detection was as described above. Compounds providing consistent p53DsRed reporter activation at low μM concentration range were selected for further testing. The effective concentration 50 (EC50) was calculated using the following formula: […]

[5] = test system: phosphorylation of histone H2AX on serine-139 (γH2AX) in A375 melanoma cells; assay: Phospho-H2AX immunofluorescence (genotoxic stress); type: cell-based; details: A375, 5 μM, 24 hours
Protocol: as §2

In vivo toxicity tests = details: mice; for acute or chronic toxicities based on histological HE-stainings: i.p., 5, 10 and 20 mg/kg three times a week for three weeks; for toxicity by weight curves, macroscopical pathologies, hematoxylin-eosin staining of tissues: i.p., 5, 10 and 20 mg/kg, 9 doses/3 weeks
Protocol: Acute and chronic toxicity of the compounds was tested on FVB/N mice. Female mice of 4-6 weeks old were purchased from Harlan and 2 animals were used per compound dose. The mice were injected intraperitoneally with the compounds three times a week for three weeks in 30 microL DMSO. Two animals received vehicle only (=30 μL DMSO). The animals were weighed prior to injections and were monitored for any signs of toxicity, distress or unusual behaviour. The animals were sacrificed three days after receiving the final injection. The liver, kidney, spleen, small intestine and thymus were excised and fixed in 4% paraformaldehyde overnight, and processed into paraffin-blocks. Haematoxylin-eosin staining (HE staining) of the tissues was performed using standard immunohistological techniques.

[6] = test system: BC3-luc pleural effusion lymphoma cells; assay: Orthotopic xenograft model of pleural effusion lymphoma; type: in vivo; details: NOD-SCID mice, 20 mg/kg i.p. seven times
Protocol: An orthotopic xenograft model of pleural effusion lymphoma was used to assess the anti-tumor activities of compounds 15, 21 and 22. Female NOD-SCID mice (Charles River, France) were injected intraperitoneally with pleural effusion lymphoma cells carrying a stable NF-kappaB regulated luciferase reporter (BC3-luc cells) (Keller et al., 2006). The tumors were allowed to establish for three days after which the mice were imaged and divided into treatment (groups 4-5 mice per group). The compound treatments were initiated on day four. The mice received 2 mg/kg (cmp21) or 20 mg/kg (cmp15 and 22) every other/third day for seven times via i.p. injections, control mice received DMSO only. The mice were imaged prior to each compound injection. Imaging was carried out with Xenogen In Vivo Imaging System (IVIS), D-luciferin (Synchem OHG, Germany) was injected intraperitoneally (100 mg/kg) 10-15 min prior to each imaging. Quantitation was done using Igor Pro Carbon analysis software, bioluminescence was quantitated and plotted as total flux within a given ROI.

[7] = test system: B-cell lymphoma (Kaposi's sarcoma herpes virus-infected pleural effusion lymphoma) cells; details: cited from earlier work

Structure (SMILES) | IC50 ([1]; Homo sapiens, 72 h) | cell cycle / apoptosis phenotype (A375 melanoma cells) | IC50 (A375 melanoma (WTp53); Homo sapiens, A-375, 72 h) | IC50 (WS-1 diploid fibroblast; Homo sapiens, 72 h) | IC50 (RPMI7951 (MUTp53); Homo sapiens, RPMI-7951, 72 h) | IC50 ([3]; Endothelial cell, 72 h) | EC50 [4] | acute or chronic toxicities based on histological HE-stainings (In vivo toxicity tests) | toxicity by weight curves, macroscopical pathologies, hematoxylin-eosin staining of tissues (In vivo toxicity tests) | also measured
COc1cccc2c(N)c3c(cnn3C)nc12 [Compound 1, 5-methoxy-1-methylH-pyrazolo[4,3-b]quinolin-9-amine] | 30.4 µM | G2-phase arrest and apoptosis | 4.3 µM | 10.4 µM | 14.7 µM | 13.1 µM | 3.3 µM | – | – | Mdm2 induction [2]: most prominent; fold difference IC50 (A375)/ IC50 (WS-1) (A375 melanoma (WTp53); A375 melanoma versus WS-1 normal cells): 2.4 fold; fraction of p53-reporter activated cells at high concentrations [4]: decrease in the fraction of p53-reporter activated cells
CN(C)CCCNc1nn2c(=O)c3ccccc3nc2c2ccccc12 [Compound 7] | 32.4 µM | imminent G2-phase arrest and increased the apoptotic fraction of the cells | 3 µM | 18.1 µM | 16.8 µM | 19.6 µM | 6.6 µM | No acute or chronic toxicities were observed | did not show any apparent toxicity | cellular γH2AX response (genotoxic stress) [5]: induces genotoxic stress; also recorded: induced a cellular γH2AX response
CCOC(=O)c1cnc2c(C)cc(C)cc2c1NCCCN(C)C [Compound 9, ethyl 4-(3-dimethylaminopropylamino)-6,8-dimethyl-quinoline-3-carboxylate] | > 40 µM | G1-phase arrest | 6.1 µM | 15.7 µM | 17.8 µM | 19.6 µM | 4.6 µM | No acute or chronic toxicities were observed | did not show any apparent toxicity | Mdm2 induction [2]: most prominent
Cc1sc2nc3c4ccccc4c(NCCCN(C)C)nn3c(=O)c2c1C [Compound 15] | – | – | – | – | – | – | 5.4 µM | No acute or chronic toxicities were observed | did not show any apparent toxicity | cellular γH2AX response (genotoxic stress) [5]: induces genotoxic stress; also recorded: induced a cellular γH2AX response; inhibition of tumor cell growth (bioluminescence) [6]: noticeable inhibition of the tumor cell growth
CCOc1ccc(C2=CC(c3cc(OC)c(OC)c(OC)c3)n3ncnc3N2)cc1 (stereo not drawn) [Compound 20, 5-(4-ethoxyphenyl)-7-(3,4,5-trimethoxyphenyl)-4,7-dihydro-[1,2,4]triazolo[1,5-α]pyrimidine] | – | – | – | – | – | – | 0.6 µM | – | – | –
Cc1cc(C)c2c(N)c3cccc(C)c3nc2n1 [Compound 23, 2,4,9-trimethylbenzo[b]-1,8-naphthyridin-5-amine] | – | – | – | – | – | – | 2.1 µM | – | – | fraction of p53-reporter activated cells at high concentrations [4]: decrease in the fraction of p53-reporter activated cells
COc1ccc(C2=N[C@@H](c3ccc(Cl)cc3)[C@@H](c3ccc(Cl)cc3)N2C(=O)N2CCNC(=O)C2)c(OC(C)C)c1 [Nutlin, nutlin-3a, reference compound] | – | – | – | – | – | – | – | – | – | IC50 [1]: > 40 µM; IC50 (A375 melanoma (WTp53)): 7.2 µM; IC50 (WS-1 diploid fibroblast): 20.6 µM; IC50 (RPMI7951 (MUTp53)): > 40 µM; B-cell lymphoma cell killing ([7]; in vitro and in vivo mouse models): highly effective agent inducing B-cell lymphoma; adverse side-effects ([7]; mouse): does not cause any adverse side-effects; IC50 [3]: 10.7 µM
